Test results reported in ChEMBL document CHEMBL1201862, “PubChem BioAssay data set” (2004).
Active and inactive are the calls of the source.

Assays:
[1] = miR-122 activators in hepatoma reporter cells, dose response, cell-based, Huh7 psiCHECK-miR122, Renilla luciferase, cherry-picked (AID 651956); type: functional;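 note: huh7 hepatoma cells stably carrying a psiCHECK-2 miR-122 sensor plasmid; renilla luciferase signal reporting endogenous miR-122 activity after 48 h compound exposure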
[2] = biological target: Mitochondrial peptide methionine sulfoxide reductase (Bos taurus, UniProt P54149); type: functional;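 note: absorbance read-out, biochemical high-throughput dose-response screen for MsrA inhibitors, confirmatory; recombinant bovine MsrA coupled to E. coli TrxB with NADPH and selenocystamine; potency is for inhibitors of MsrA activity on DMSO substrate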
Sequence of Mitochondrial peptide methionine sulfoxide reductase (P54149 whole entry): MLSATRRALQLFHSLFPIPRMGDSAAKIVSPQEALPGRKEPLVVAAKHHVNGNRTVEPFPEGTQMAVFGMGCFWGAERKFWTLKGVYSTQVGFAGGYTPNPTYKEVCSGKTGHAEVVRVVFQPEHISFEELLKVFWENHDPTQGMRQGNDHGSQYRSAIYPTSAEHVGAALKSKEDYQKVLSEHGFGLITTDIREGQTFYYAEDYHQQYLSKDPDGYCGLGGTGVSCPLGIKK

Melanocortin receptor 4 = Melanocortin receptor 4 (Homo sapiens, UniProt P32245); type: functional, cell-based;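 note: Cell-based assay with luminescence read-out, confirmatory dose-response testing for agonist activity of biased ligands at MC4R; human U2OS cells with tagged receptor and beta-arrestin; potency of agonists that increase receptor coupling to beta-arrestin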
Sequence of Melanocortin receptor 4 (P32245 whole entry): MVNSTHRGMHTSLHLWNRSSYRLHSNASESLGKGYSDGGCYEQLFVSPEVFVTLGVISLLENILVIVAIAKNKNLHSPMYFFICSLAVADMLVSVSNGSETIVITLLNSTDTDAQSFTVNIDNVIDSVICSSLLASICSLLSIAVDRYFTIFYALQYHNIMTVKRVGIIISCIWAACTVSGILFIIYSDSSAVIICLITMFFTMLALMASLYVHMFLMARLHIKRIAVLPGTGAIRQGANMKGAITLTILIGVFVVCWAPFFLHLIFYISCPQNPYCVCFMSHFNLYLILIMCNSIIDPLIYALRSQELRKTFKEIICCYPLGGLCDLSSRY

Cytochrome P450 3A4 = Cytochrome P450 3A4 (Homo sapiens, UniProt P08684);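 note: CYP3A4 tested as one member of a cytochrome P450 panel screen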
Sequence of Cytochrome P450 3A4 (P08684 whole entry): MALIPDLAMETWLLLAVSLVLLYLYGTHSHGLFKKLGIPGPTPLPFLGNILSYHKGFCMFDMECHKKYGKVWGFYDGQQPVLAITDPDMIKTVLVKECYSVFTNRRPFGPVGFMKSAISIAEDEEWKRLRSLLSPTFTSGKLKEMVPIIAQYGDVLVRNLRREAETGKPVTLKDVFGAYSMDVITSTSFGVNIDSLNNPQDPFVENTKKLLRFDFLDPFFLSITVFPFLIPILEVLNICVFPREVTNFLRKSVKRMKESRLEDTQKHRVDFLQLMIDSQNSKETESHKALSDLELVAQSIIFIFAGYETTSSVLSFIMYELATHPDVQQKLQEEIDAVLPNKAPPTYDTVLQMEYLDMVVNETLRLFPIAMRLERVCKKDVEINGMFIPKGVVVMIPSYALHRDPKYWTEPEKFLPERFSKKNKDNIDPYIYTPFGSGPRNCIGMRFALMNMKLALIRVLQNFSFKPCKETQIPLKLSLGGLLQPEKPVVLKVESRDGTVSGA

[3] = biological target: T1, Trace amine-associated receptor 1 (Homo sapiens, UniProt Q96RJ0); experiment: Counterscreen for agonists of the human trace amine associated receptor 1 (hTAAR1): Fluorescence-based cell-based high throughput dose response assay to identify hTAAR1 agonist that also desensitize TAAR1 receptor response.; type: functional
T1 sequence (Q96RJ0 whole entry): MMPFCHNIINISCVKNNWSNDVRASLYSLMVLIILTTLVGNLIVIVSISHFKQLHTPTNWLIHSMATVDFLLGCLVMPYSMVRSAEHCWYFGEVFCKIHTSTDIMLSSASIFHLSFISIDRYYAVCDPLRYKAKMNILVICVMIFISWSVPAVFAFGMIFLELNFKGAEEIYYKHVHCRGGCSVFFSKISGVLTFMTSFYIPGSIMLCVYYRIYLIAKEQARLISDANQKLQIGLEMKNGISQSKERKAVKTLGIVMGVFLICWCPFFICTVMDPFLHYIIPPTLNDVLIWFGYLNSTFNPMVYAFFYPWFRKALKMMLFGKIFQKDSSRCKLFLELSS

[4] = biological target: T1, Trace amine-associated receptor 1; experiment: Fluorescence-based cell-based high throughput dose response assay to identify agonists of the human trace amine associated receptor 1 (TAAR1).; type: functional
cells [5] = type: functional, cell-based
cells [6] = type: functional, cell-based; remark: listed apart in the source
[7] = biological target: T2, Sentrin-specific protease 1 (Homo sapiens, UniProt Q9P0U3); experiment: Dose response confirmation of small molecule inhibitors of the catalytic domain of the SUMO protease, SENP1 in a FRET assay.; type: functional; conditions: read-out: IC50_Mean
T2 sequence (Q9P0U3 whole entry): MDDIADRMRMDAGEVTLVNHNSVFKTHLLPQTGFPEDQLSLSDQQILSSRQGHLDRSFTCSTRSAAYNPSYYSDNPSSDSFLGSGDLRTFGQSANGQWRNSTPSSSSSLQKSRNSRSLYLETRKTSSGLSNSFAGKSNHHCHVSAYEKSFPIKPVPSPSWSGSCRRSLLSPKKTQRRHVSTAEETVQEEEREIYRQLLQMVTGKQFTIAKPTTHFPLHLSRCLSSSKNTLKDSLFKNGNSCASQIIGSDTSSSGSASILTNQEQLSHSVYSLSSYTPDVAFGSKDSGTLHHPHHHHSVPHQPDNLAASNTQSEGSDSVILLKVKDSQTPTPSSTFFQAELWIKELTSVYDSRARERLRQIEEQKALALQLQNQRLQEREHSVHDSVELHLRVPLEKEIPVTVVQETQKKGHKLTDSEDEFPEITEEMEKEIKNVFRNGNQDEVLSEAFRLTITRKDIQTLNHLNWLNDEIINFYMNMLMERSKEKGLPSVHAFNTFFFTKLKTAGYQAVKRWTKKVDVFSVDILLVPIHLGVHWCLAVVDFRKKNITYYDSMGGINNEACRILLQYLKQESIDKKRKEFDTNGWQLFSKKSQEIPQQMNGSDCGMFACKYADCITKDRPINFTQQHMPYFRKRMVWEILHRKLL

[8] = biological target: Dual specificity tyrosine-phosphorylation-regulated kinase 1A (Rattus norvegicus, UniProt Q63470); type: biochemical, Homo sapiens
[9] = biological target: T2, Sentrin-specific protease 1; experiment: potency of human SENP1 inhibitors, dose response, biochemical, kinetic FRET (AID 651697); type: functional; conditions: read-out: IC50_Mean
[10] = cytotoxicity toward NIH3T3 fibroblasts, dose response, counter-screen, cell-based, ATP luminescence, mouse fibroblasts (AID 2010); type: functional;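 note: cells exposed to compound for about 90 hours before reading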
[11] = inhibitors of intracellular T. cruzi replication, confirmation, NIH3T3 host cells, beta-gal luminescence (AID 2044); type: functional, cell-based;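 note: intracellular parasites grown in NIH/3T3 mouse fibroblasts as host cells; luminescent beta-galactosidase reporter signal from transgenic T. cruzi replicating inside host cells; inhibitors lower the luminescence signal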
Vero = experiment: West Nile virus antiviral activity, cell-based, CPE readout (AID 1621); type: functional; conditions: Chlorocebus sabaeus
[12] = biological target: T3, Low molecular weight phosphotyrosine protein phosphatase (Homo sapiens, UniProt P24666); type: functional; conditions: read-out: IC50_Mean
T3 sequence (P24666 whole entry): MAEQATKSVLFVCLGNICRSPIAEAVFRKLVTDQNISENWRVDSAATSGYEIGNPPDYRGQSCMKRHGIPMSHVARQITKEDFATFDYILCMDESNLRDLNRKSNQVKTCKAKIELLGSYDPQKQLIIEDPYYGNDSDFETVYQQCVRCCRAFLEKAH

[13] = biological target: T3, Low molecular weight phosphotyrosine protein phosphatase; type: functional; conditions: read-out: IC50_Mean; remark: listed apart in the source
Galanin receptor type 3 = Galanin receptor type 3 (Homo sapiens, UniProt O60755); experiment: Fluorescence-based cell-based primary high throughput dose response assay to identify antagonists of the Galanin Receptor 3 (GalR3).; type: functional
Sequence of Galanin receptor type 3 (O60755 whole entry): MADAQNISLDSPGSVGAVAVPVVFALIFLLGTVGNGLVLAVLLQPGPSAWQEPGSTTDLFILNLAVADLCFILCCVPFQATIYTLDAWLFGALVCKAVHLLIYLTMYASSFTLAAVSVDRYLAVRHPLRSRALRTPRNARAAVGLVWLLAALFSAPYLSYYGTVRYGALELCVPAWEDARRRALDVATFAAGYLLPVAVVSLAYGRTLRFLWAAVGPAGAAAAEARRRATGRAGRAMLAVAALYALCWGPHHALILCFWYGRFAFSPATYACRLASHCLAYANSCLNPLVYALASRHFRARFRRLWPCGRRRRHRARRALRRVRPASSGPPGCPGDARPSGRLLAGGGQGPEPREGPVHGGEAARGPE

cells [14] = type: functional, cell-based; conditions: HEK-CNG
Beta-lactamase [15] = biological target: T4, Beta-lactamase (Pseudomonas aeruginosa, UniProt Q79MP6); experiment: […] counterscreen for selective VIM-2 inhibitors: dose response biochemical high throughput screening assay to identify inhibitors of IMP-1 metallo-beta-lactamase.
T4 sequence (Q79MP6 whole entry): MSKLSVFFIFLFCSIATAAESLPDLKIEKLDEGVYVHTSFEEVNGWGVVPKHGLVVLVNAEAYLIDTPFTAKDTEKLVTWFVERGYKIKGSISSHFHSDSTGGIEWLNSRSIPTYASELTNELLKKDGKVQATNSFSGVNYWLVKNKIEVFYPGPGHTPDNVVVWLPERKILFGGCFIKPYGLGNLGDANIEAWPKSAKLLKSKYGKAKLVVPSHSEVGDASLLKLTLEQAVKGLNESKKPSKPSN

Beta-lactamase [16] = biological target: T4, Beta-lactamase; experiment: IMP-1 metallo-beta-lactamase inhibitors, dose response, selectivity assay for VIM-2 inhibitor project, biochemical, epi-absorbance (AID 1920)
Beta-lactamase [17] = biological target: Beta-lactamase (Salmonella choleraesuis (strain SC-B67), UniProt Q5J463); experiment: Epi-absorbance-based counterscreen for selective VIM-2 inhibitors: dose response biochemical high throughput screening assay to identify inhibitors of TEM-1 serine-beta-lactamase.
Sequence of Beta-lactamase (Salmonella choleraesuis (strain SC-B67), UniProt Q5J463) (Q5J463 whole entry): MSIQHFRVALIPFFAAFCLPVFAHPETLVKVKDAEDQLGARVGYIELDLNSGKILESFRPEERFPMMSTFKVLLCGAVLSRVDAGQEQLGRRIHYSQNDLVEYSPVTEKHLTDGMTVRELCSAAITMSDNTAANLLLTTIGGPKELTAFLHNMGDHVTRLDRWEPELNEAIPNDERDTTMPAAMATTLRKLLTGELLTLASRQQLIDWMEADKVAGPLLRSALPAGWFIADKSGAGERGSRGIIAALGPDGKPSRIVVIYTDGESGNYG

[18] = biological target: T5, Aryl hydrocarbon receptor (Homo sapiens, UniProt P35869); conditions: Potency;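 note: confirmatory quantitative high-throughput screen measuring activation of the AhR signaling pathway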
T5 sequence (P35869 whole entry): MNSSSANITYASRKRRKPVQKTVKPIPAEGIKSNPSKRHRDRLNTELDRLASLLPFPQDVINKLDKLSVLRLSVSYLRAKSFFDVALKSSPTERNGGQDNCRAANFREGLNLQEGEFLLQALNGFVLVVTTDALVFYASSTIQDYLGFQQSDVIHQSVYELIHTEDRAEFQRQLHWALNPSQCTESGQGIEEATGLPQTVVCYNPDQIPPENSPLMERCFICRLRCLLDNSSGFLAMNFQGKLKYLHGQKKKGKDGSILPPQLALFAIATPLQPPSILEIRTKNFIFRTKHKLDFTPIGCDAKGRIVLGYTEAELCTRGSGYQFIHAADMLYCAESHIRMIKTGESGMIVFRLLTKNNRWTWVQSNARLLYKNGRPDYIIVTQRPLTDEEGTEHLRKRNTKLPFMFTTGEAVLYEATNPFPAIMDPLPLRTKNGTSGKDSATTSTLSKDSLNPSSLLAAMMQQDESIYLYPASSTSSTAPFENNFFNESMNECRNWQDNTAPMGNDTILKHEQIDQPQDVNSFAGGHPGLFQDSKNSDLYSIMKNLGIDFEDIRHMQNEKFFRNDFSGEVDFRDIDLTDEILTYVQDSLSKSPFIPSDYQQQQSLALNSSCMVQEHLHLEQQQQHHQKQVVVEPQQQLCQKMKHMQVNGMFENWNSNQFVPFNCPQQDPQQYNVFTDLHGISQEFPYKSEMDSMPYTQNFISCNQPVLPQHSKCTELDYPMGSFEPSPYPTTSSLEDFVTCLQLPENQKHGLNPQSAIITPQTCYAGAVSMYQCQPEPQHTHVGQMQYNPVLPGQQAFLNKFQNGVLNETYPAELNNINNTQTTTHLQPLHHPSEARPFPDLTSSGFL

[19] = biological target: Intestinal-type alkaline phosphatase (Homo sapiens, UniProt P09923); experiment: inhibition of human intestinal alkaline phosphatase – biochemical, dose response (AID 488876); type: functional
Sequence of Intestinal-type alkaline phosphatase (Homo sapiens, UniProt P09923) (P09923 whole entry): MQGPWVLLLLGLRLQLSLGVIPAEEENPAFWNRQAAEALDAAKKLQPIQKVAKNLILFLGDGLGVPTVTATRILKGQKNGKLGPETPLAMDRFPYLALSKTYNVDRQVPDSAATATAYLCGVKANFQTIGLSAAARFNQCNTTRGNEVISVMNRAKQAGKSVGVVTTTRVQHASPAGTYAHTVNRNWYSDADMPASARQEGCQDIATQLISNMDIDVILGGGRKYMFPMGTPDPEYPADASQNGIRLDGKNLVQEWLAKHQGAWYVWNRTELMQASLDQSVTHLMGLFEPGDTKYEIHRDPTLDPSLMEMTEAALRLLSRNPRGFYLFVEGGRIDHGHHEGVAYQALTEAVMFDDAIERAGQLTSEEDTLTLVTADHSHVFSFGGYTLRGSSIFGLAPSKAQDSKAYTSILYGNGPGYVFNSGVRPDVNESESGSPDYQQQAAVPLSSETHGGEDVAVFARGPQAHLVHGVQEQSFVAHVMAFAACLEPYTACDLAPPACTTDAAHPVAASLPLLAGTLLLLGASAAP

[20] = biological target: DNA (cytosine-5)-methyltransferase 1 (Homo sapiens, UniProt P26358); experiment: DNMT1 methyltransferase inhibitors, confirmation, biochemical, fluorescent molecular beacon (AID 602386); type: functional
Caspase-6 = biological target: T6, Caspase-6 (Homo sapiens, UniProt P55212); experiment: human caspase-6 inhibitors, dose response, biochemical, VEID-R110 fluorescence, cherry-pick (AID 720632)
T6 sequence (P55212 whole entry): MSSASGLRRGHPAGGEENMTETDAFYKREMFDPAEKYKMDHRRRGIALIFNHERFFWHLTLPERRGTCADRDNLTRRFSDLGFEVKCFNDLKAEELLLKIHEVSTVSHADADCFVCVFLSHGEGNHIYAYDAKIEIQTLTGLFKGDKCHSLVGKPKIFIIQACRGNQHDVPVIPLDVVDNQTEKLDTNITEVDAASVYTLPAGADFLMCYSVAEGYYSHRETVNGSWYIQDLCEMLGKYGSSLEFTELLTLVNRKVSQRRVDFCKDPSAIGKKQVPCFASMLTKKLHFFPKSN

[21] = biological target: T7, Alkaline phosphatase, tissue-nonspecific isozyme (Homo sapiens, UniProt P05186); experiment: TNAP enzyme inhibition by screening hits, dose response, selectivity assay for mouse IAP inhibitor project, biochemical, human TNAP, uHTS hits (AID 488906); type: functional
T7 sequence (P05186 whole entry): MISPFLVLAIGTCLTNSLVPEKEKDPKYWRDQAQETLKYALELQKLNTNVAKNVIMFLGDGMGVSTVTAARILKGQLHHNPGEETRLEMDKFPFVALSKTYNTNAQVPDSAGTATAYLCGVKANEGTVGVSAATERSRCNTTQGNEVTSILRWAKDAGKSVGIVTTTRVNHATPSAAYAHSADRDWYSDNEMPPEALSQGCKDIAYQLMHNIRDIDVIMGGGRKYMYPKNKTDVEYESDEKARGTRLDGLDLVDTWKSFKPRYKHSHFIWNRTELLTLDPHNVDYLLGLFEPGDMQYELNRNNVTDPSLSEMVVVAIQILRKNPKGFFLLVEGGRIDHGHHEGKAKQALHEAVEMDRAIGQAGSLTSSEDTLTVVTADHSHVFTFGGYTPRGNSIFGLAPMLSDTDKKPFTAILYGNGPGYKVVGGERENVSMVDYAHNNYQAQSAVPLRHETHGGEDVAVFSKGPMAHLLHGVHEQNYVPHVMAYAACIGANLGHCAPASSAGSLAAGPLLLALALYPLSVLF

[22] = control 3'UTR Renilla luciferase suppression, dose response, counter-screen for Shn3 inhibitor project, cell-based, Clone20-Shn3RL, cherry-picked (AID 624133); type: functional
[23] = biological target: Intestinal-type alkaline phosphatase (Mus musculus, UniProt P24822); experiment: PubChem AID 488785; type: functional
Sequence of Intestinal-type alkaline phosphatase (Mus musculus, UniProt P24822) (P24822 whole entry): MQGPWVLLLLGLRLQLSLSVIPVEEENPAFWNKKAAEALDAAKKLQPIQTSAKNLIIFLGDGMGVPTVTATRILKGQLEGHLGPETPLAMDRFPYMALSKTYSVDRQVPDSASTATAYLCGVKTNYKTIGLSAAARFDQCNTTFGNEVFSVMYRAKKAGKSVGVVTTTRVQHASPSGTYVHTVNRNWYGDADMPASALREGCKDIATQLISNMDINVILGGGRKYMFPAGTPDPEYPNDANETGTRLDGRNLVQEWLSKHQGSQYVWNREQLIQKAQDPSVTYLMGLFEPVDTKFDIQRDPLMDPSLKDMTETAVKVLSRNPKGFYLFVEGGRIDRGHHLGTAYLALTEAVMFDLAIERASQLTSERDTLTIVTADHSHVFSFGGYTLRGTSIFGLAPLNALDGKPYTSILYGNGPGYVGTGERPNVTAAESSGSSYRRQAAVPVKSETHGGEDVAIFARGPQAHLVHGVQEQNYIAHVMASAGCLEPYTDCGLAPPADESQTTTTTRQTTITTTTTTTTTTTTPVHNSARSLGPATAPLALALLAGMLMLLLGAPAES

[24] = biological target: Protein-tyrosine kinase 2-beta (Homo sapiens, UniProt Q14289);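 note: potency of inhibitors of PYK2 kinase phosphorylation of poly-GT substrate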
Sequence of Protein-tyrosine kinase 2-beta (Q14289 whole entry): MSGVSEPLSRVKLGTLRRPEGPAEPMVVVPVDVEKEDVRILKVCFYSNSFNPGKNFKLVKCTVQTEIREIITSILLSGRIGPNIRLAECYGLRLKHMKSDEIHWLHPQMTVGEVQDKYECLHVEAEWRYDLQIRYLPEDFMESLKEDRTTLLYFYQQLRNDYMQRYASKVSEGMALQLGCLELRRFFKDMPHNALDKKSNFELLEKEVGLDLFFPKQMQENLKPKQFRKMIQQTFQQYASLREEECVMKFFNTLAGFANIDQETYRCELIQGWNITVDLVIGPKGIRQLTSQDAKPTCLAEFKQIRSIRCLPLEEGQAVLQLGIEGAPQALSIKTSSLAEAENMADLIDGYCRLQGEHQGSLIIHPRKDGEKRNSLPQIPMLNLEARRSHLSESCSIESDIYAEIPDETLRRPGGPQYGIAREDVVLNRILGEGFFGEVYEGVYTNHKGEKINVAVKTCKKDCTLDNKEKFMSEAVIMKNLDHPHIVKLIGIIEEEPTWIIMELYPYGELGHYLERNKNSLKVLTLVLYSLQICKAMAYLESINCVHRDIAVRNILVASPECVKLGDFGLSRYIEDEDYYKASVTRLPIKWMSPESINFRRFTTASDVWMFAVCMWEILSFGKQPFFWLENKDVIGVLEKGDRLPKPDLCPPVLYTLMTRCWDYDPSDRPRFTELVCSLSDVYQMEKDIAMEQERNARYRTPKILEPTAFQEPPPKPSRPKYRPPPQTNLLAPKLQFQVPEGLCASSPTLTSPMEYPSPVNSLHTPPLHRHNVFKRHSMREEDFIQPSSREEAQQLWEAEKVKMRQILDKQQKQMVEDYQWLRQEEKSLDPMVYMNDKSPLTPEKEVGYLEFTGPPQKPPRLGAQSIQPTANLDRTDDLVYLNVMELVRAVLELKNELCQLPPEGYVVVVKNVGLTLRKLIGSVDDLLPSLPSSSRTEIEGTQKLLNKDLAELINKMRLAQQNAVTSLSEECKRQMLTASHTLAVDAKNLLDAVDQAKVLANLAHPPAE

CC(=O)Nc1ccc(S(=O)(=O)Nc2ccc(S(=O)(=O)Nc3nc(C)cc(C)n3)cc2)cc1
AC50 [1]: 19.7 µM (active)

CN(/N=C/C=C/c1ccccc1)c1cc(=O)n(C)c(=O)[nH]1
IC50 [2]: 155 µM (inactive)

O=C(N/N=C/c1ccc(OCc2ccccc2)cc1)c1cccs1
EC50 (Melanocortin receptor 4): > 89.2 µM (inactive)
AC50 (Cytochrome P450 3A4): 39.8 µM (inconclusive)

O=c1cc(Nc2ccc3c(c2)OCO3)[nH]c(=O)n1-c1ccc(Br)cc1
IC50 [3]: 21.9 µM (inactive)
EC50 [4]: 5.11 µM (active)
IC50 (cells [5]): > 29.9 µM (inactive)
EC50 (cells [6]): > 29.9 µM (inactive)

O=C1NC(=S)SC1=Cc1cc(Br)ccc1O
IC50 [7]: 2.57 µM (active)
AC50 [8]: 8.94 µM (active)
IC50 [9]: 14.7 µM (active)

CCN1CCN(CCNC(=O)c2ccc(/C=C3\Sc4ccccc4N(Cc4ccccc4F)C3=O)cc2)CC1
EC50 [10]: > 60 µM (not active)
EC50 (Melanocortin receptor 4): > 89.2 µM (inactive)
EC50 [11]: 2.03 µM (active)
IC50 (Vero): 22.8 µM (active)

Clc1cccc(Cl)c1Cn1cnc(NCc2ccco2)c2ncnc1-2
IC50 [12]: 4.06 µM (active)
IC50 [13]: 9.54 µM (active)

COc1cccc2[nH]c3c(N4CCC(C)CC4)ncnc3c12
IC50 (Galanin receptor type 3): 379 nM (active)
EC50 (cells [14]): > 29.9 µM (inactive)

COc1ccccc1-c1n[nH]c(=S)n1Cc1ccco1
IC50 (Beta-lactamase [15]): > 59.6 µM (inactive)
IC50 (Beta-lactamase [16]): > 59.6 µM (inactive)
IC50 (Beta-lactamase [17]): > 59.6 µM (inactive)

S=C1NC2(CCCC2)Nc2ccccc21
IC50 [2]: 53.6 µM (inactive)

COc1cc(C(=O)Nc2ccc(S(=O)(=O)N3CCCCC3C)cc2)cc(OC)c1OC (centres undefined)
AC50 [1]: 19.8 µM (active)

CCCCC[C@@H](/C=C/C1C(=O)C=C[C@H]1C/C=C\CCCC(=O)O)OC(C)=O (some centres undefined)
IC50 (Galanin receptor type 3): 1090 nM (active)
EC50 (cells [14]): > 29.9 µM (inactive)

CCC(=NN=C(CC)c1ccccc1O)c1ccccc1O
IC50 [7]: 10.4 µM (active)
IC50 [9]: 8.19 µM (active)

O=C(O)/C=C/C(=O)NCCc1ccccc1
IC50 [3]: 1.19 µM (active)
EC50 [4]: 0.153 µM (active)
IC50 (cells [5]): > 29.9 µM (inactive)
EC50 (cells [6]): > 29.9 µM (inactive)

CON=C(C(=O)OC)c1ccccc1CO/N=C(\C)c1cccc(C(F)(F)F)c1
AC50 [18]: 63.1 µM (inconclusive)

COc1ccc(C(=O)OCC(=O)Nc2ncc([N+](=O)[O-])s2)cc1OC
IC50 [19]: 72.6 µM (active)
IC50 [20]: 4.45 µM (active)
AC50 (Caspase-6): 4.75 µM (active)
IC50 [21]: 23.7 µM (active)
AC50 [22]: 20.8 µM (active)
IC50 [23]: 8.79 µM (active)

O=P(O)(O)c1ccccc1OCCCCCOc1ccccc1P(=O)(O)O
IC50 (Beta-lactamase [15]): > 59.6 µM (inactive)
IC50 (Beta-lactamase [16]): > 59.6 µM (inactive)
IC50 [24]: 2.23 µM (active)
IC50 (Beta-lactamase [17]): > 59.6 µM (inactive)

Cc1ccc(/N=C/N(C)/C=N/c2ccc(C)cc2C)c(C)c1 [AMITRAZ]
AC50 [18]: 50.1 µM (inconclusive)
